pIC50: −log10 of the molar value. “Also recorded” adds a separate entry of the source. Like-named read-outs stand apart in the source and are kept apart here.
Experiments:
Assay type in all cases: cell-based
[1] = Compound toxicity in the attachment assay, sister plates, MTS dye reduction; conditions: human, HeLa CD4 LTR β-gal cells, read-out: TC50
Experimental: At assay termination the assay plates were stained with the soluble tetrazolium-based dye MTS (CellTiter96® Reagent Promega) to determine cell viability and quantify compound toxicity. MTS is metabolized by the mitochondria enzymes of metabolically active cells to a soluble formazan product, allowing the rapid quantitative analysis cell viability and compound cytotoxicity. […] At termination of the assay 20 μL of MTS reagent was added per well and incubated for 4 h at 37° C. Adhesive plate sealers were used in place of the lids, the sealed plate was inverted several times to mix the soluble formazan product and the plate was read spectrophotometrically at 490 nm with a Molecular Devices Vmax plate reader.
The attachment assay was performed with the HeLa CD4 LTR β-gal cells available from the AIDS Research and Reference Reagent Repository. […] HeLa CD4 LTR β-gal cells express cell surface CD4 and contain an LTR β-galactosidase reporter construct. Upon infection either the Tat protein incorporated into the virion or new Tat produced following virus integration and transcription trans-activates the LTR β-gal reporter, leading to expression of the β-galactosidase enzyme. HeLa CD4 LTR β-gal cells are routinely cultured with the required selection antibiotics and screened for mycoplasma contamination. Twenty-four h prior to initiation of the assay cells were trypsinized, counted and 1×10^4 cells placed in a 0.2 cm well in media without selection antibiotics. […] A known titer of virus was then added to the wells and the incubation continued for 1 h. At the end of the incubation the wells were washed 6 times with media and the culture continued for 48 h. At 48 h the wells were washed one time with PBS and β-galactosidase enzyme expression determined by chemiluminescence per manufacturers instructions (Tropix Gal-screen™, Tropix, Bedford, Mass.). Compound toxicity was monitored on sister plates using MTS dye reduction.

HIV-1 = assay: HeLa CD4 LTR β-gal HIV-1 attachment assay (Experimental Example 1); conditions: for pIC50: Human immunodeficiency virus 1, HeLa; for inhibition of HIV attachment/entry: following a 24 h pre-incubation
[2] = test system: interaction of HIV gp 120 with CD4 (HeLa CD4 LTR β-gal / HL2/3 cell fusion); assay: HeLa CD4 LTR β-gal/HL2/3 HIV-1 fusion assay (Experimental Example 1); conditions: fusion assay
From the text: This assay uses the HeLa CD4 LTR β-gal and HL2-3 cells available from the AIDS Research and Reference Reagent Repository. The fusion assay utilizes HeLa CD4 LTR β-gal cells with HL2/3 cells as a fusion partner via the interaction of HIV gp 120 with CD4. HL2/3 cells express HIV-1 Env on their cell surface and contain an HIV-1 Tat expression cassette. Upon syncytium formation and plasma membrane fusion, cytoplasmic mixing of the HL2/3 and HeLa CD4 LTR b-gal cell contents results in the transactivation of the LTR and β-Galactosidase expression is then directly related to […] cell membrane fusion. Thus, these two mechanistic assays can be used to confirm and identify a virus entry-based target of the compound. Additionally, because the attachment assay uses cell-free virus this assay can be used to show applicability to cell-free virus transmission.
Twenty-four h prior to initiation of the assay cells were trypsinized, counted and 5×10^3 cells placed in a 0.2 cm well in media without selection antibiotics. To initiate the fusion assay HeLa CD4 LTR β-gal (5×10^3 cells per 0.2 cm well) were incubated with compound for 1 h at 37° C. HL2/3 cells (5×10^3) were added to the 0.2 cm well and the incubation continued for 48 h. At 48 h the wells were washed 1 time with PBS and β-galactosidase enzyme expression determined by chemiluminescence per manufacturers instructions (Tropix Gal-screen™, Tropix, Bedford, Mass.). Compound toxicity was monitored on sister plates using MTS dye reduction.
In addition to assessing inhibition of attachment with HeLa CD4 LTR β-gal cells a virus fusion assay was perfoed using HeLa CD4 LTR β-gal and HL2/3 cells. No timed addition of compound was employed, but rather the assay was performed to verify the effects of the compounds on the HeLa CD4 LTR β-gal cells β-galactosidase expression.

IIIB strain of HIV-1 = assay: Virus attachment assay, HeLa CD4 LTR β-gal cells (Experimental Example 2); conditions: Human immunodeficiency virus 1, IIIB, HeLa, read-out: Attachment Assay IC50
Experimental: This assay detects compounds that block virus attachment using HeLa CD4 LTR β-gal cells. HeLa CD4 LTR β-gal cells were cultured with selection antibiotics. Twenty-four h prior to initiation of the assay, the cells were trypsinized, counted and plated in a 0.2 cm well in media without selection antibiotics. At 24 h media is removed and compound in media placed on the cells and incubated for 15 min at 37° C. A known titer of the IIIB strain of HIV-1 was then added to the wells and the incubation continued for 1 to 2 h. At the end of the incubation the wells were washed 2 times with media and the culture continued for 40 to 48 h. At termination of the assay, media is removed and β-galactosidase enzyme expression determined by chemiluminescence per manufacturer's instructions (Tropix Gal-screen, Bedford Mass.). Compound toxicity is monitored on a sister plate by XTT or MTS dye reduction. All determinations are performed in triplicate with serial_Log10 dilution of the test materials.

[3] = Compound toxicity in the fusion assay, sister plate, XTT or MTS (Example 2); conditions: human, HeLa CD4 LTR β-gal cells, read-out: Fusion Assay TC50
Experimental: (§1) The fusion assay assesses the ability of compounds to block cell-to-cell fusion mediated by HIV-1 Env and CD4 expressed on separate cells. This assay is sensitive to inhibitors of both the gp 120/CD4 interaction and inhibitors of the X4 coreceptor. HeLa CD4 LTR β-gal cells were plated in microtiter wells and diluted compounds are added and allowed to incubate at 37° C. for 1 hr prior to the addition of HL2/3 cells. The incubation was then continued for 40 to 48 h, after which fusion is monitored by measurement of β-galactosidase enzyme expression, detectable by chemiluminescence (Tropix Gal-screen, Tropix, Bedford, Mass.). Compound toxicity is monitored on a sister plate using XTT or MTS dye reduction. All determinations are performed in triplicate with serial_Log10 dilution of the test materials.

[4] = test system: cell-to-cell fusion mediated by HIV-1 Env and CD4; assay: Fusion assay, HeLa CD4 LTR β-gal and HL2/3 cells (Experimental Example 2); conditions: Human immunodeficiency virus 1, HL2/3, read-out: Fusion Assay IC50
Experimental: as §1

SMILES | CC50 at 48 h ([1]; Experiment 1, pretreat 0 h) [µM] | CC50 at 48 h ([1]; Experiment 1, pretreat 4 h) [µM] | CC50 at 48 h ([1]; Experiment 1, pretreat 24 h) [µM] | CC50 at 48 h ([1]; Experiment 2, pretreat 0 h) [µM] | CC50 at 48 h ([1]; Experiment 2, pretreat 4 h) [µM] | CC50 at 48 h ([1]; Experiment 2, pretreat 24 h) [µM] | pIC50 (HIV-1; Experiment 1, pretreat 0 h) | pIC50 (HIV-1; Experiment 1, pretreat 4 h) | pIC50 (HIV-1; Experiment 1, pretreat 24 h) | pIC50 (HIV-1; Experiment 2, pretreat 0 h) | pIC50 (HIV-1; Experiment 2, pretreat 4 h) | pIC50 (HIV-1; Experiment 2, pretreat 24 h) | β-galactosidase production relative to background (cells alone+compounds) (HIV-1; at all times) | inhibition of HIV attachment/entry (HIV-1) | Comment: suppression of β-galactosidase activity (HIV-1; pretreat 0 h) | Comment: suppression of β-galactosidase activity (HIV-1; pretreat 4 h) | Comment: suppression of β-galactosidase activity (HIV-1; pretreat 24 h) | Comments: suppression of β-galactosidase activity [2] | Comment: transient suppression lost at lower concentrations (HIV-1; pretreat 0 h) | Comment: transient suppression lost at lower concentrations (HIV-1; pretreat 4 h) | further results
C=C(C)[C@@H]1CCC(C)=C[C@H]1c1c(O)cc(CCCCC)cc1O [Cannabidiol, reference compound] | > 50 | > 50 | > 50 | > 50 | 41 | 33 | 4.85 | 5.17 | 5.92 | 5.89 | 4.55 | 5.85 | suppressed β-galactosidase production below background | consistent inhibition | Exp. 1 suppression of β-galactosidase | Suppression of β-galactosidase activity | Suppression of β-galactosidase activity | Suppression of β-galactosidase | – | – | –
COc1cc(C(C)(C)CCCC(C)C)cc(OC)c1OC [IMG507, 1-(1,1,5-Trimethylhexyl)-3,4,5-trimethoxybenzene] | > 50 | > 50 | > 50 | > 50 | > 50 | > 50 | < 4.30 | < 4.30 | < 4.30 | 4.80 | < 4.30 | < 4.30 | suppressed β-galactosidase production below background | not | – | – | – | – | Transient suppression lost with at lower | Transient suppression lost with at lower | transient suppression of virus replication at lower concentrations of compounds (HIV-1; observed consistently, two independent experiments): transient suppression of virus replication; Comment: transient suppression lost at lower concentrations (HIV-1; pretreat 24 h): Transient suppression t lost with at lower
Cc1ccc2c(c1)-c1c(O)cc(C(C)(C)CCCC(C)C)cc1OC2(C)C [IMG511, 3-Norpentyl-3-(1,1,5-trimethylhexyl)cannabinol] | > 50 | > 50 | > 50 | > 50 | > 50 | 11.1 | 4.60 | 5.02 | 5.60 | > 6.80 | 5.08 | 5.15 | suppressed β-galactosidase production below background | consistent inhibition | Suppression of β-galactosidase activity | Suppression of β-galactosidase activity, | Suppression of β-galactosidase activity | Suppression of β-galactosidase | – | Transient suppression lost with at lower | pIC50 (IIIB strain of HIV-1): 4.33; CC50 [3]: 20.7 µM; pIC50 [4]: 6.04
CC(C)=CCCC1(C)CCc2c(O)cc(C(C)(C)CCCC(C)C)cc2O1 (stereo not drawn) [IMG508, 3,4-Dihydro-2-methyl-2-(4-methyl-3-pentenyl)-7-(1,1,5-trimethylhexyl)-2H-1-benzopyran-5-ol] | > 50 | > 50 | > 50 | > 50 | 29 | 12.2 | 4.80 | 4.97 | 5.13 | 6.05 | 4.96 | 5.59 | suppressed β-galactosidase production below background | consistent inhibition | Suppression of β-galactosidase activity, | Suppression of β-galactosidase activity | Suppression of β-galactosidase activity, | – | Transient suppression lost with at lower | – | Comment: transient suppression lost at lower concentrations (HIV-1; pretreat 24 h): Transient suppression lost with at lower
Cc1c(O)cc(C(C)(C)CCCC(C)C)cc1O [IMG510, 2-Methyl-5-(1,1,5-trimethylhexyl)resorcinol] | > 50 | > 50 | > 50 | > 50 | > 50 | 39.4 | < 4.30 | < 4.30 | 6.85 | < 4.30 | < 4.30 | 4.94 | – | consistent inhibition | – | – | Suppression of β-galactosidase activity | – | – | transient suppression of virus replication; also recorded: Transient suppression lost with at lower | pIC50 (IIIB strain of HIV-1): 4.29; CC50 [3]: > 100 µM; pIC50 [4]: 5.87; β-galactosidase production relative to background (cells alone+compounds) (HIV-1; following 24 h exposure): suppressed β-galactosidase production below background

Reference: US20030232101A1, “Topical formulations of resorcinols and cannibinoids and methods of use” (Immugen Pharmaceuticals, Inc., priority 2002, published 2003)
